Source: patent publication US20170173114A1, “METHODS AND COMPOSITIONS FOR INDUCTION OF UCP1 EXPRESSION” (Joslin Diabetes Center, Inc., priority 2014, published 2017)
“Also recorded” adds a separate entry of the source.

Legend:
[1] = biological target: T1, (Mus musculus, UniProt Q923E4); assay: EX 527 effect on FGF6-induced UCP1 and PTGS2 expression in WT-1 preadipocytes; format: cell-based, murine; settings: 50 uM pretreatment 3 hours, then EX and FGF6 18 hours
T1 construct: endogenous in cells; host or cells: WT-1 murine brown preadipocytes
T1 sequence (Q923E4 2-737 limits assumed): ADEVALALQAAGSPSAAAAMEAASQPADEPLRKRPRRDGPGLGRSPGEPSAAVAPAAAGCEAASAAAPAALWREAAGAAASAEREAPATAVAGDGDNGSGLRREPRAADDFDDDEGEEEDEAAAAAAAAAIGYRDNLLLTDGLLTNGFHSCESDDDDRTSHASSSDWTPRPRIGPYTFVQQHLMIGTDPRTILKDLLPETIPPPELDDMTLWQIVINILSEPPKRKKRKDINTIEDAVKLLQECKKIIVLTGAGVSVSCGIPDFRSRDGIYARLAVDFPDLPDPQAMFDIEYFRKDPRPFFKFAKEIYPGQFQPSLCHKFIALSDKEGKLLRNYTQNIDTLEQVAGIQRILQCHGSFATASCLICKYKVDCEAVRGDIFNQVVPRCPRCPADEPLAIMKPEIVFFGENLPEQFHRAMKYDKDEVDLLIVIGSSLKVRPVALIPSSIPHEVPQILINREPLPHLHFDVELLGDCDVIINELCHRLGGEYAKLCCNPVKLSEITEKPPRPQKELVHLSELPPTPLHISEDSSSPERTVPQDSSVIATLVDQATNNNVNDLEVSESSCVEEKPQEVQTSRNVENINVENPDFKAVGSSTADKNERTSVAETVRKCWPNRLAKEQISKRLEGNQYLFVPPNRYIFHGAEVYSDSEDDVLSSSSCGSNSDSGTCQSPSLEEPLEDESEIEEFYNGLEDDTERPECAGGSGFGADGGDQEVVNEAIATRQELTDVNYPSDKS
Procedure: (§1) To determine if the […] pathway is utilized by FGF6 to regulate UCP1 expression and mitochondrial function, WT-1 preadipocytes were pretreated with the […] selective inhibitor EX (EX 527; Santa Cruz Biotechnology) at concentrations of 0 uM or 50 uM in growth media (DMEM+10% FBS) for 3 hours. Following EX treatment, the cells were treated with EX and FGF6 for 18 hours.

[2] = biological target: T2, Sirt2 (Mus musculus, UniProt Q923E4); assay: as above; format: cell-based, murine; settings: 50 uM pretreatment 3 hours, then EX and FGF6 18 hours
T2 construct: endogenous in cells; host or cells: WT-1 murine brown preadipocytes
T2 sequence (Q923E4 2-737 limits assumed): T1 sequence (Q923E4 2-737 limits assumed)
Procedure: as §1

FGF6-induced PTGS2 expression level [1]: reduced; also recorded: suppression
Structure (SMILES): NC(=O)C1CCCc2c1[nH]c1ccc(Cl)cc21 (centres unmarked) [EX]
FGF6-induced UCP1 mRNA expression [2]: inhibited UCP1 expression; also recorded: suppression
